In patent publication US20250136553A1, “ACYLSULFONAMIDE KAT6A INHIBITORS” (Olema Pharmaceuticals, Inc., priority 2023, published 2025) one finds IC50 and inhibition data, which are given here for 28 compounds.

Like-named read-outs stand apart in the source and are kept apart here.

The target of this test is human-KAT6A (MYST domain 507-778 aa) (Homo sapiens (Human), UniProt Q92794). The test can be described thus: KAT6A biochemical assay (TR-FRET). As to conditions: for IC50: TR-FRET, histone H4 peptide 200 nM, acetyl-CoA 600 nM; for inhibition at 10 µM: reported where IC50 could not be determined, read-out: Percent inhibition at specific concentration (KAT6A). From the text: TR-FRET based methods were used for assaying compounds of the present invention for KAT6A enzyme inhibitory activity. TR-FRET is a homogeneous proximity assay where Europium-labelled anti-acetyl lysine antibody binds to the acetylated substrate labelled with biotin, which in turn binds to streptavidin-labelled APC fluorescence acceptor. Europium can transfer energy to APC in the complex and the interaction of two dye-labelled binding partners is detected by the energy transfer between a donor and an acceptor dye and the subsequent light emission by the acceptor dye. KAT6A transfer an acetyl group from acetyl CoA to lysine amino acids of histones/target proteins. […] The selected compound of the present invention and enzyme are incubated for 30 min on plate shaker at 300 rpm at 25° C. Next, 5 μL of substrate mix containing histone H4 peptide and acetyl-CoA in assay buffer is added to the plate. The final concentrations of H4 peptide and acetyl-CoA are 200 nM and 600 nM, respectively. Following 60 min reaction at 25° C. on plate shaker at 300 rpm, 5 μL of detection mix containing Europium-labelled anti-acetyl antibody and streptavidin-APC is added to the reaction wells. The plate is further incubated at 25° C. on shaker at 300 rpm and is read in TR-FRET mode (Ex:340 nm; Em: 615 nm and 665 nm) on a plate reader to achieve ˜5-7-fold activity. The percent inhibition was calculated from the ratio of the fluorescence (FL) intensities [(F665/F615)×10000) using the formula […]. IC50 values of the compounds were determined by fitting the dose-response data to sigmoidal curve fitting equation using Graph pad prism software V9.
Background: TR-FRET usually uses a lanthanide donor and a delayed reading to cut background.

Chain of human-KAT6A (MYST domain 507-778 aa) (Q92794 507-778): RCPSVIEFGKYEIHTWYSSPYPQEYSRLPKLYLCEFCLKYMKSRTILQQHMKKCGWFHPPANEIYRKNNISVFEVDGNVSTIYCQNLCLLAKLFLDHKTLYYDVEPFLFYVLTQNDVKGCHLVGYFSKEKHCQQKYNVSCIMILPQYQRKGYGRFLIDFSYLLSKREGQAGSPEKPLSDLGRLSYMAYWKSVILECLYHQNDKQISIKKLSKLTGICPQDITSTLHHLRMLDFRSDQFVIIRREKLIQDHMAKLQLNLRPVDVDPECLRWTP

One may read the IC50 as the midpoint of a concentration-inhibition curve. Consider “5-((1H-pyrazol-1-yl)methyl)-N-((5-(tert-butyl)-2-methoxyphenyl)sulfonyl)-4-methoxypyrimidine-2-carboxamide [Compound 264]”, for which the IC50 (read-out: KAT6A IC50) is 12 nM. Turning to `CCOc1cccc(OC)c1S(=N)(=O)NC(=O)c1ccc(Cn2cccn2)c(OC)n1` (racemic) [Compound 294, 5-((1H-pyrazol-1-yl)methyl)-N-(2-ethoxy-6-methoxyphenylsulfonimidoyl)-6-methoxypicolinamide], the IC50 (read-out: KAT6A IC50) was 35 nM. For the compound `COc1ccc(C(C)(C)O)cc1S(=N)(=O)NC(=O)c1ccc(Cn2cccn2)c(OC)n1` (racemic) [Compound 297, 5-((1H-pyrazol-1-yl)methyl)-N-(5-(2-hydroxypropan-2-yl)-2-methoxyphenylsulfonimidoyl)-6-methoxypicolinamide], the IC50 (read-out: KAT6A IC50) was 39 nM.

For `COc1cc(OC)c(S(=N)(=O)NC(=O)c2ccc(Cn3cccn3)c(OC)c2)c(OC)c1` (racemic) [Compound 299, 4-((1H-pyrazol-1-yl)methyl)-3-methoxy-N-(2,4,6-trimethoxyphenylsulfonimidoyl)benzamide], the IC50 (read-out: KAT6A IC50) was determined as 25 nM. On the same count and under the same terms, with `COc1cccc(OC)c1S(=N)(=O)NC(=O)c1ccc(Cn2cccn2)c(OC)n1` (single isomer, unassigned) [Compound 243a] the figure was 17 nM; with `COc1cccc(OC)c1S(=N)(=O)NC(=O)c1ccc(Cn2cccn2)c(OC)n1` (single isomer, unassigned) [Compound 243b], 82 nM. Same read-out and setting: with `COc1cc(Cn2cccn2)ccc1C(=O)NS(=O)(=O)c1c(OC)cccc1OC` [Compound 1, 4-((1H-pyrazol-1-yl)methyl)-N-((2,6-dimethoxyphenyl)sulfonyl)-2-methoxybenzamide] the figure was 247 nM; with `COc1cc(Cn2cccn2)ccc1C(=O)NS(=O)(=O)c1ccccc1OC` [Compound 2, 4-((1H-pyrazol-1-yl)methyl)-2-methoxy-N-((2-methoxyphenyl)sulfonyl)benzamide], 741 nM. Take `CCc1ccc(OC)c(S(=O)(=O)NC(=O)c2ccc(Cn3cccn3)cc2OC)c1` [Compound 3, 4-((1H-pyrazol-1-yl)methyl)-N-((5-ethyl-2-methoxyphenyl)sulfonyl)-2-methoxybenzamide]: the IC50 (read-out: KAT6A IC50) stood at 137 nM. Still for that read-out and setting: to `COc1cc(Cn2cccn2)ccc1C(=O)NS(=O)(=O)c1cc(C(C)(C)C)ccc1OC` [Compound 4] belongs 82 nM; to `COc1cc(Cn2cccn2)ccc1C(=O)NS(=O)(=O)c1cc2c(cc1OC)CCC2` [Compound 5, 4-((1H-pyrazol-1-yl)methyl)-2-methoxy-N-((6-methoxy-2,3-dihydro-1H-inden-5-yl)sulfonyl)benzamide], 178 nM. For the compound `COc1cc(Cn2cccn2)cc(C(=O)NS(=O)(=O)c2c(OC)cccc2OC)c1` [Compound 6, 3-((1H-pyrazol-1-yl)methyl)-N-((2,6-dimethoxyphenyl)sulfonyl)-5-methoxybenzamide], the inhibition at 10 µM amounted to 26%. For `COc1ccc(C(C)(C)C)cc1S(=O)(=O)NC(=O)c1ccc(Cn2cccn2)cc1F` [Compound 7, 4-((1H-pyrazol-1-yl)methyl)-N-((5-(tert-butyl)-2-methoxyphenyl)sulfonyl)-2-fluorobenzamide], under “read-out: KAT6A IC50”, the IC50 was 99 nM. The same measure, in the same setting: with `COc1cc(C(=O)NS(=O)(=O)c2ccc(C(C)(C)C)cc2OC)ccc1Cn1cccn1` [Compound 8, 4-((1H-pyrazol-1-yl)methyl)-N-((4-(tert-butyl)-2-methoxyphenyl)sulfonyl)-3-methoxybenzamide] the figure was 17 nM. On to `COc1ccc(Cn2cccn2)cc1C(=O)NS(=O)(=O)c1cc(C(C)(C)C)ccc1OC` [Compound 9, 5-((1H-pyrazol-1-yl)methyl)-N-((5-(tert-butyl)-2-methoxyphenyl)sulfonyl)-2-methoxybenzamide], for which the inhibition at 10 µM was determined as 13%. `COc1cc(Cn2cccn2)ccc1C(=O)NS(=O)(=O)c1ccc(-n2cccn2)cc1OC` [Compound 10, 4-((1H-pyrazol-1-yl)methyl)-2-methoxy-N-((2-methoxy-4-(1H-pyrazol-1-yl)phenyl)sulfonyl)benzamide]: the IC50 (read-out: KAT6A IC50) is 1480 nM. Take `COc1cc(Cn2cccn2)ccc1C(=O)NS(=O)(=O)c1ccc(C(C)(C)C)cc1OC` [Compound 11, 4-((1H-pyrazol-1-yl)methyl)-N-((4-(tert-butyl)-2-methoxyphenyl)sulfonyl)-2-methoxybenzamide]: where the note is “read-out: KAT6A IC50”, the IC50 is 500 nM. Consider `COc1cccc(OC)c1S(=O)(=O)NC(=O)c1ccc(Cn2cccn2)c(F)c1` [Compound 12, 4-((1H-pyrazol-1-yl)methyl)-N-((2,6-dimethoxyphenyl)sulfonyl)-3-fluorobenzamide], for which, for the setting “read-out: KAT6A IC50”, the IC50 worked out at 48 nM. Turning to `COc1ccc(C(C)(C)C)cc1S(=O)(=O)NC(=O)c1ccc(Cn2cccn2)c(F)c1` [Compound 13, 4-((1H-pyrazol-1-yl)methyl)-N-((5-(tert-butyl)-2-methoxyphenyl)sulfonyl)-3-fluorobenzamide], for the setting “read-out: KAT6A IC50”, the IC50 was 47 nM. As for `COc1cc(C(=O)NS(=O)(=O)c2c(OC)cccc2OC)ccc1Cn1cccn1` [Compound 14, 4-((1H-pyrazol-1-yl)methyl)-N-((2,6-dimethoxyphenyl)sulfonyl)-3-methoxybenzamide], the IC50 was found to be 7 nM (KAT6A IC50 (nM)) and 32 nM (read-out: KAT6A IC50). Regarding `COc1cc(Cn2cccn2)ccc1C(=O)NS(=O)(=O)c1cc2c(cc1OC)CCCC2` [Compound 15, 4-((1H-pyrazol-1-yl)methyl)-2-methoxy-N-((3-methoxy-5,6,7,8-tetrahydronaphthalen-2-yl)sulfonyl)benzamide], the IC50 (read-out: KAT6A IC50) is 576 nM. For the compound `COc1ccc(C(C)(C)C)cc1S(=O)(=O)NC(=O)c1ccc(Cn2cccn2)c(Br)c1` [Compound 16, 4-((1H-pyrazol-1-yl)methyl)-3-bromo-N-((5-(tert-butyl)-2-methoxyphenyl)sulfonyl)benzamide], the half-inhibitory concentration (IC50) (read-out: KAT6A IC50) was determined as 26 nM. Still for that read-out and setting: with `COc1ccc(C(C)(C)C)cc1S(=O)(=O)NC(=O)c1ccc(Cn2cccn2)c(C2CC2)c1` [Compound 17, 4-((1H-pyrazol-1-yl)methyl)-N-((5-(tert-butyl)-2-methoxyphenyl)sulfonyl)-3-cyclopropylbenzamide] the figure was 20 nM. On the same count and under the same terms, with `COc1ccc(C(C)(C)C)cc1S(=O)(=O)NC(=O)c1ccc(Cn2cccn2)c(C#N)c1` [Compound 18] the figure was 70 nM. For the compound `COc1cc(C(=O)NS(=O)(=O)c2cc(-n3cccn3)ccc2OC)ccc1Cn1cccn1` [Compound 19, 4-((1H-pyrazol-1-yl)methyl)-3-methoxy-N-((2-methoxy-5-(1H-pyrazol-1-yl)phenyl)sulfonyl)benzamide], the IC50 (read-out: KAT6A IC50) was 42 nM. The same measure, in the same setting: to `COc1ccc(C(C)(C)C)cc1S(=O)(=O)NC(=O)c1ccc(Cn2cccn2)c(C)c1` [Compound 20, 4-((1H-pyrazol-1-yl)methyl)-N-((5-(tert-butyl)-2-methoxyphenyl)sulfonyl)-3-methylbenzamide] belongs 39 nM.

In the case of `CCOc1cc(C(=O)NS(=O)(=O)c2cc(C(C)(C)C)ccc2OC)ccc1Cn1cccn1` [Compound 21, 4-((1H-pyrazol-1-yl)methyl)-N-((5-(tert-butyl)-2-methoxyphenyl)sulfonyl)-3-ethoxybenzamide], the IC50 (read-out: KAT6A IC50) is 28 nM. Regarding `COc1cc(C(=O)NS(=O)(=O)c2ccccc2-c2ccccc2)ccc1Cn1cccn1` [Compound 22, 4-((1H-pyrazol-1-yl)methyl)-N-([1,1′-biphenyl]-2-ylsulfonyl)-3-methoxybenzamide], the IC50 (read-out: KAT6A IC50) was 49 nM.
